Data reported in PubChem BioAssay (NCI).
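All cell lines were grown in 96-well plates and treated with compound for 48 hours. The concentration for full growth arrest is given as TGI.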

Key:
Test in all cases: NCI-60 cell line screen, 48 h
SF-295 CNS = test system: SF-295 CNS
NCI-H23 lung = test system: NCI-H23 lung
M14 melanoma = test system: M14 melanoma
MDA-MB-435 = test system: MDA-MB-435
OVCAR-5 ovarian = test system: OVCAR-5 ovarian
TK-10 renal = test system: TK-10 renal
BT-549 breast = test system: BT-549 breast
SW-620 colon = test system: SW-620 colon
UACC-62 melanoma = test system: UACC-62 melanoma
PC-3 prostate = test system: PC-3 prostate
MOLT-4 leukemia = test system: MOLT-4 leukemia
CAKI-1 renal = test system: CAKI-1 renal
HCT-116 colon = test system: HCT-116 colon
A549 NSCLC = test system: A549 NSCLC
OVCAR-3 ovarian = test system: OVCAR-3 ovarian
HL-60(TB) leukemia = test system: HL-60(TB) leukemia
SF-539 CNS = test system: SF-539 CNS
COLO 205 colon = test system: COLO 205 colon
KM12 colon = test system: KM12 colon
SN12C renal = test system: SN12C renal
HCT-15 colon = test system: HCT-15 colon
MCF7 breast = test system: MCF7 breast
SK-MEL-5 melanoma = test system: SK-MEL-5 melanoma
MDA-N = test system: MDA-N
SK-MEL-2 melanoma = test system: SK-MEL-2 melanoma
K-562 leukemia = test system: K-562 leukemia
OVCAR-8 ovarian = test system: OVCAR-8 ovarian
IGROV1 ovarian = test system: IGROV1 ovarian
MALME-3M melanoma = test system: MALME-3M melanoma
A498 renal = test system: A498 renal
ACHN renal = test system: ACHN renal
SNB-19 CNS = test system: SNB-19 CNS
NCI/ADR-RES ovarian = test system: NCI/ADR-RES ovarian
UACC-257 melanoma = test system: UACC-257 melanoma
HT29 colon = test system: HT29 colon
DU-145 prostate = test system: DU-145 prostate
NCI-H226 lung = test system: NCI-H226 lung
UO-31 renal = test system: UO-31 renal
LOX IMVI melanoma = test system: LOX IMVI melanoma
MDA-MB-231 breast = test system: MDA-MB-231 breast
NCI-H460 lung = test system: NCI-H460 lung
NCI-H522 lung = test system: NCI-H522 lung
SK-OV-3 ovarian = test system: SK-OV-3 ovarian
RPMI-8226 leukemia = test system: RPMI-8226 leukemia
U251 CNS = test system: U251 CNS
SF-268 CNS = test system: SF-268 CNS
HCC-2998 colon = test system: HCC-2998 colon
HOP-62 NSCLC = test system: HOP-62 NSCLC
SR leukemia = test system: SR leukemia
CCRF-CEM leukemia = test system: CCRF-CEM leukemia
EKVX NSCLC = test system: EKVX NSCLC
SNB-75 CNS = test system: SNB-75 CNS
RXF 393 renal = test system: RXF 393 renal
SK-MEL-28 melanoma = test system: SK-MEL-28 melanoma
HS 578T breast = test system: HS 578T breast
OVCAR-4 ovarian = test system: OVCAR-4 ovarian
786-0 renal = test system: 786-0 renal
T-47D breast = test system: T-47D breast
HOP-92 NSCLC = test system: HOP-92 NSCLC

CCc1ccc2nc(-c3ccc(O)cc3)sc2c1
TGI (SF-295 CNS): 30.6 µM
TGI (NCI-H23 lung): 34.1 µM
TGI (M14 melanoma): 35.5 µM
TGI (MDA-MB-435): 39.5 µM
TGI (OVCAR-5 ovarian): 28.6 µM
TGI (TK-10 renal): 35.7 µM
TGI (BT-549 breast): 31.1 µM
TGI (SW-620 colon): 38 µM
TGI (UACC-62 melanoma): 25.1 µM
TGI (PC-3 prostate): 29 µM
TGI (MOLT-4 leukemia): 40.8 µM
TGI (CAKI-1 renal): 26.4 µM
TGI (HCT-116 colon): 30.4 µM
TGI (A549 NSCLC): 44.9 µM
TGI (OVCAR-3 ovarian): 28.1 µM
TGI (HL-60(TB) leukemia): 10.2 µM
TGI (SF-539 CNS): 27.8 µM
TGI (COLO 205 colon): 28.6 µM
TGI (KM12 colon): 32.7 µM
TGI (SN12C renal): 27.7 µM
TGI (HCT-15 colon): 29.4 µM
TGI (MCF7 breast): 46.4 µM
TGI (SK-MEL-5 melanoma): 34.6 µM
TGI (MDA-N): 36 µM
TGI (SK-MEL-2 melanoma): 31.9 µM
TGI (K-562 leukemia): 54.5 µM
TGI (OVCAR-8 ovarian): 38.9 µM
TGI (IGROV1 ovarian): 29.4 µM
TGI (MALME-3M melanoma): 36.8 µM
TGI (A498 renal): 34.2 µM
TGI (ACHN renal): 38.2 µM
TGI (SNB-19 CNS): 35.5 µM
TGI (NCI/ADR-RES ovarian): 32.9 µM
TGI (UACC-257 melanoma): 35.7 µM
TGI (HT29 colon): 30.2 µM
TGI (DU-145 prostate): 28.9 µM
TGI (NCI-H226 lung): 30.1 µM
TGI (UO-31 renal): 24.4 µM
TGI (LOX IMVI melanoma): 33.6 µM
TGI (MDA-MB-231 breast): 29.9 µM
TGI (NCI-H460 lung): 41.3 µM
TGI (NCI-H522 lung): 18.3 µM
TGI (SK-OV-3 ovarian): 32.3 µM
TGI (RPMI-8226 leukemia): 35.3 µM
TGI (U251 CNS): 33.6 µM
TGI (SF-268 CNS): 37.8 µM

COc1ccc2sc(-n3nc4ccccc4c3Nc3nc4ccc(OC)cc4s3)nc2c1
TGI (SF-295 CNS): 12.8 µM
TGI (NCI-H23 lung): 5.25 µM
TGI (HCC-2998 colon): 5.47 µM
TGI (M14 melanoma): 35.8 µM
TGI (MDA-MB-435): 12 µM
TGI (OVCAR-5 ovarian): 13.8 µM
TGI (TK-10 renal): 11.8 µM
TGI (BT-549 breast): 14 µM
TGI (HOP-62 NSCLC): 4.43 µM
TGI (SW-620 colon): 36.4 µM
TGI (UACC-62 melanoma): 10.8 µM
TGI (SR leukemia): > 100 µM
TGI (PC-3 prostate): 17.4 µM
TGI (CAKI-1 renal): 6.89 µM
TGI (HCT-116 colon): 5.95 µM
TGI (A549 NSCLC): 18.5 µM
TGI (CCRF-CEM leukemia): > 100 µM
TGI (EKVX NSCLC): 19.3 µM
TGI (OVCAR-3 ovarian): 7.45 µM
TGI (SF-539 CNS): 4.5 µM
TGI (COLO 205 colon): > 63.9 µM
TGI (KM12 colon): 25.5 µM
TGI (SN12C renal): 18.5 µM
TGI (SNB-75 CNS): 9.92 µM
TGI (HCT-15 colon): > 72.1 µM
TGI (MCF7 breast): 42 µM
TGI (SK-MEL-5 melanoma): 9.97 µM
TGI (RXF 393 renal): 43.3 µM
TGI (SK-MEL-2 melanoma): > 52.4 µM
TGI (K-562 leukemia): > 38.9 µM
TGI (SK-MEL-28 melanoma): 26.5 µM
TGI (OVCAR-8 ovarian): 6.17 µM
TGI (IGROV1 ovarian): 8.47 µM
TGI (MALME-3M melanoma): 14.8 µM
TGI (A498 renal): 5.63 µM
TGI (ACHN renal): 11.2 µM
TGI (HS 578T breast): 5.61 µM
TGI (SNB-19 CNS): 9.26 µM
TGI (NCI/ADR-RES ovarian): 10.4 µM
TGI (UACC-257 melanoma): 19.5 µM
TGI (HT29 colon): 14.7 µM
TGI (DU-145 prostate): 17.9 µM
TGI (NCI-H226 lung): 13.9 µM
TGI (UO-31 renal): 34 µM
TGI (LOX IMVI melanoma): 24.3 µM
TGI (MDA-MB-231 breast): 10.9 µM
TGI (NCI-H460 lung): > 38.9 µM
TGI (NCI-H522 lung): 17.2 µM
TGI (SK-OV-3 ovarian): 7.47 µM
TGI (OVCAR-4 ovarian): 6.82 µM
TGI (RPMI-8226 leukemia): 7.12 µM
TGI (U251 CNS): 11 µM
TGI (SF-268 CNS): 32.5 µM
TGI (786-0 renal): 3.87 µM
TGI (T-47D breast): 5.64 µM
TGI (HOP-92 NSCLC): 15.5 µM
